# Source: publication PMC4004761 (Journal of medicinal chemistry, 2013)
# Like-named read-outs stand apart in the source and are kept apart here. Marks after values point to notes of the source that are not given here.
# Tests used:
# [1] = test system: maximal electroshock seizure (hind-limb tonic extension); conditions: mouse
# [2] = test system: maximal electroshock seizure (hind-limb tonic extension); conditions: in vivo, cited from earlier work
# [3] = test system: kindled seizures (seizure score, after-discharge duration); conditions: for Effect in rat kindling model: Figure 1
# sound-induced seizures = experiment: animal or person; conditions: Mus musculus, ip, read-out: Audiogenic seizure ED50
# [4] = test system: chemically-induced forelimb clonic seizures; conditions: mouse, cited from earlier work
# [5] = test system: maximal electroshock seizure (hind-limb tonic extension); conditions: at 2 h (time of peak effect); cited from earlier work
# [6] = test system: kindled seizures (seizure score, after-discharge duration); conditions: cited from earlier work
# kappa-opioid receptor = kappa-opioid receptor (Homo sapiens, UniProt P41145); experiment: Cerep receptor-binding panel: kappa opioid; conditions: read-out: Inhibition, kappa-opioid receptor
# Sequence of kappa-opioid receptor (P41145 whole entry): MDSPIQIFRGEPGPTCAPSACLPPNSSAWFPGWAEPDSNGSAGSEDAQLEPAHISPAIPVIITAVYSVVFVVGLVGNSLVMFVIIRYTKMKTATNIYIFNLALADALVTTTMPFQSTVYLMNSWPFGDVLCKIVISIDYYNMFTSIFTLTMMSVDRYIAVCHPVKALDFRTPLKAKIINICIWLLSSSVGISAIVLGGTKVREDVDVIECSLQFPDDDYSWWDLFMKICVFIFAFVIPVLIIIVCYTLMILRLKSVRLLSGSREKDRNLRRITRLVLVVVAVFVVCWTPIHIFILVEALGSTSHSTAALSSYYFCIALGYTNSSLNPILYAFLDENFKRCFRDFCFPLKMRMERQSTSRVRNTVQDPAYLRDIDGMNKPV
# rat KCNQ2 = rat KCNQ2 (Rattus norvegicus, UniProt O88943); experiment: KCNQ2 whole-cell patch-clamp, M-current protocol; format: cell-based
# Sequence of rat KCNQ2 (O88943 whole entry): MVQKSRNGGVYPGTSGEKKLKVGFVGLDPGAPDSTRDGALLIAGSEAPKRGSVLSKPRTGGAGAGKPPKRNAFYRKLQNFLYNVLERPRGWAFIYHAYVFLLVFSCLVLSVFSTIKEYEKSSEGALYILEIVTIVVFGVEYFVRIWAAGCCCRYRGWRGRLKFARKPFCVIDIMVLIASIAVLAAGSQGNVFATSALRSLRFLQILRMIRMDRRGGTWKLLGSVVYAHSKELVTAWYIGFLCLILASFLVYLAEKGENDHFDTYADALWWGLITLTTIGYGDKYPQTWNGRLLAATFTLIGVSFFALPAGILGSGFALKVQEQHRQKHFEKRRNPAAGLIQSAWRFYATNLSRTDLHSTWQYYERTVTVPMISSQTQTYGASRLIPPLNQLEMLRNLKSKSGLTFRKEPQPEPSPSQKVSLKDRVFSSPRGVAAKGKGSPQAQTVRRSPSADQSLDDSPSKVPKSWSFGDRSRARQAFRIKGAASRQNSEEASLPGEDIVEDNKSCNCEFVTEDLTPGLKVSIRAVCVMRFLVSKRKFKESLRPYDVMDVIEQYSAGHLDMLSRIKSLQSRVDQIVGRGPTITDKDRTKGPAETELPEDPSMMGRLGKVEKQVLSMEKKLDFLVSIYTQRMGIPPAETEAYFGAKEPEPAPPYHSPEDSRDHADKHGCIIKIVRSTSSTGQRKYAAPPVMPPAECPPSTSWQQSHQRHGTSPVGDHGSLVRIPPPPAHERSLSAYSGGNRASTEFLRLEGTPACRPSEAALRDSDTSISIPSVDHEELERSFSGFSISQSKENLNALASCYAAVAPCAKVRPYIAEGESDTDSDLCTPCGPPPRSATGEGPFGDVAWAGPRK
# rat Nav1.2 = rat Nav1.2 (Rattus norvegicus, UniProt P04775); experiment: Voltage-gated Na+ channel whole-cell patch-clamp in CHL1610 cells; format: cell-based
# Sequence of rat Nav1.2 (P04775 whole entry): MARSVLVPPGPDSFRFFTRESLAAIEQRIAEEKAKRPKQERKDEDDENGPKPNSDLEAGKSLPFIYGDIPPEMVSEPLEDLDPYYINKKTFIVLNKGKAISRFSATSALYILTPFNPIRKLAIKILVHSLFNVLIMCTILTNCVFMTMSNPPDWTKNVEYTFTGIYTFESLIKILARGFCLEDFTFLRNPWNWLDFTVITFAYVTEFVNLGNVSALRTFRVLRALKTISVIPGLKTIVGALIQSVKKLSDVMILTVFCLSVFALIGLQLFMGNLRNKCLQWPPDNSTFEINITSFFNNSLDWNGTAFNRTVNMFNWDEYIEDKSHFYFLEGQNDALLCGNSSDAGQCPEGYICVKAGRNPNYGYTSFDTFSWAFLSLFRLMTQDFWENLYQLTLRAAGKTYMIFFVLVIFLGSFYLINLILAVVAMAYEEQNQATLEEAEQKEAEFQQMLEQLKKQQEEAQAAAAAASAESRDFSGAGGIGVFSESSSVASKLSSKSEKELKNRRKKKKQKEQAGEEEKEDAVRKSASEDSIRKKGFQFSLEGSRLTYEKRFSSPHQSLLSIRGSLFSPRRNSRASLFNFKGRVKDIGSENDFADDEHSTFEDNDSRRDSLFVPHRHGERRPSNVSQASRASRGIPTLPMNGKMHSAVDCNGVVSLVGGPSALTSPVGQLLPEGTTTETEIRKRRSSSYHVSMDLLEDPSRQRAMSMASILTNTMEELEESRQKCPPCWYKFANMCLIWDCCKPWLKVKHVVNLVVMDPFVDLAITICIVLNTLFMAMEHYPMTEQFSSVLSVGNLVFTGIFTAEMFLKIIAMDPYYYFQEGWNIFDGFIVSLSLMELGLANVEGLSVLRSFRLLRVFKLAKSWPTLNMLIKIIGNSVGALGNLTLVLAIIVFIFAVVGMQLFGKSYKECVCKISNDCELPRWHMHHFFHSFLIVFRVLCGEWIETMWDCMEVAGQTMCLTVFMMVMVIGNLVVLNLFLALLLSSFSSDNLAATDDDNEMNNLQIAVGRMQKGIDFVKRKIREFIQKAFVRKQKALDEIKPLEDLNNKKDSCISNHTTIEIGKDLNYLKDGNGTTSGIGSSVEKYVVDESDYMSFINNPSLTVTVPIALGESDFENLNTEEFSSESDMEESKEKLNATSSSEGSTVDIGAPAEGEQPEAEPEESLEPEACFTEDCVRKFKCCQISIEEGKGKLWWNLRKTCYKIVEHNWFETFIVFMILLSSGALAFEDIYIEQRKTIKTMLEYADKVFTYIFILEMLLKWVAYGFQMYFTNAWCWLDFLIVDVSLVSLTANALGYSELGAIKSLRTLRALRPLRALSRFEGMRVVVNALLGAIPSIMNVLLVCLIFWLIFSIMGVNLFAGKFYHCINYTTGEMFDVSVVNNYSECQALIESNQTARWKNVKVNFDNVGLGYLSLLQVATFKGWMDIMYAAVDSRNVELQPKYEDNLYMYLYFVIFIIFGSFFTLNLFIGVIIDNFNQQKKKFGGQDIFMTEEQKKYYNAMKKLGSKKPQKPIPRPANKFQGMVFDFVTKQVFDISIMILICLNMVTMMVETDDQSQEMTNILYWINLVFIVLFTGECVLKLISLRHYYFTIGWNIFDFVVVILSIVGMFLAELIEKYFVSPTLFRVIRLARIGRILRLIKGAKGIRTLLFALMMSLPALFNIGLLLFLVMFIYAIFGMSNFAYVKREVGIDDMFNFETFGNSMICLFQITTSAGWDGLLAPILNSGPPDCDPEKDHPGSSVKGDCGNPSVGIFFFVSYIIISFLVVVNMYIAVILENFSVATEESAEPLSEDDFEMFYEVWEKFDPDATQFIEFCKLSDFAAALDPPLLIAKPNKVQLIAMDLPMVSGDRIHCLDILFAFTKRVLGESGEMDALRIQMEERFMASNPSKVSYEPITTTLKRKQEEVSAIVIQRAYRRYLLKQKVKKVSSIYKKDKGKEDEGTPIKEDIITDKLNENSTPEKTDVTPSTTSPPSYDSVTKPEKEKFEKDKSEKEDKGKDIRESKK
smiles,measurement,setting,value
NS(=O)(=O)NC[C@H]1COc2c(Cl)cccc2O1 [10a],"MES, po, effect (animals responding / animals tested)","[1]; 100 mg/kg po, 0.5 h",0/5
same,"MES, po, effect (animals responding / animals tested)","[1]; 100 mg/kg po, 2 h",1/5
COc1cccc2c1O[C@@H](CNS(N)(=O)=O)CO2 [10g],"MES, po, effect (animals responding / animals tested)","[1]; 100 mg/kg po, 0.5 h","0.5, 0/5; 2, 0/5 ^j"
same,"MES, po, effect (animals responding / animals tested)","[1]; 100 mg/kg po, 2 h","0.5, 0/5; 2, 0/5 ^j"
NS(=O)(=O)NCC1Oc2ccc(Cl)cc2O1 (centres unmarked) [11b],"MES, po, effect (animals responding / animals tested)","[1]; 100 mg/kg po, 0.5 h","0.5, 0/5; 2, 0/5"
same,"MES, po, effect (animals responding / animals tested)","[1]; 100 mg/kg po, 2 h","0.5, 0/5; 2, 0/5"
CCCCNS(N)(=O)=O [BuNHSO2NH2],Activity in the MES test,[2]; mouse,not active
NS(=O)(=O)NCc1ccccc1 [PhCH2NHSO2NH2],Mouse MES effect (animals protected / tested),[2]; 100 mg/kg,3/3
same,Mouse MES effect (animals protected / tested),[2]; 300 mg/kg,3/3
NC(=O)N1c2ccccc2C=Cc2ccccc21 [carbamazepine],Effect in rat kindling model,[3]; maximally effective dose,significantly suppressed seizure activity
same,Doses giving protection similar to 4 (range of neurotoxic effects),[3]; rat kindling,> 26 mg/kg
"CC1(C)O[C@@H]2[C@@H](CO[C@@]3(COS(N)(=O)=O)OC(C)(C)O[C@@H]23)O1 [compound 1, topiramate]",Oral mouse MES ED50,[2],43.8 ^f mg/kg
same,"MES, po, effect (animals responding / animals tested)",[2]; mouse,"0.5, 2/5; 2, 4/5 ^l"
same,ED50,sound-induced seizures,4.2 mg/kg
same,Rats with complete protection,[3]; maximally effective dose,one out of eight
same,Effect in rat kindling model,[3]; maximally effective dose,not effective
"NS(=O)(=O)NCc1csc2ccccc12 [compound 3, N-((benzo[b]thien-3-yl)methyl)sulfamide]",Oral mouse MES ED50,[2],119 ^c mg/kg
same,"MES, po, effect (animals responding / animals tested)","[2]; mouse, 100 mg/kg","0.5, 1/5; 2, 3/5"
same,ED50 vs s.c. Bic-induced forelimb clonic seizures,"[4]; ip, […]",156 mg/kg
same,ED50 vs s.c. PTZ-induced forelimb clonic seizures,"[4]; ip, […]",161 mg/kg
same,ED50 vs s.c. Pic-induced forelimb clonic seizures,"[4]; ip, […]",106 mg/kg
same,Rat MES oral ED50,[5],34 mg/kg
same,Rats with complete absence of seizure activity,"[6]; maximally effective dose, time of peak effect",six out of eight
same,Reduction of after-discharge duration,"[6]; rat, i.p., p < 0.01",64%
same,Rats with seizure score reduced from 5 to 0,"[6]; rat, i.p., p = 0.0001",six out of eight
same,Time of peak activity,"[6]; rat, i.p., sustained at 1 h",15 min
"NS(=O)(=O)NC[C@H]1COc2cc(Cl)ccc2O1 [compound 4, (2S)-(–)-N-((6-Chloro-2,3-dihydrobenzo[1,4]dioxin-2-yl)methyl)sulfamide]",inhibition at 10 µM,kappa-opioid receptor,45%
same,Increase in KCNQ2 current,"rat KCNQ2; 300 μM, −50 mV, N = 5 cells",2.4 fold
same,Increase in decay kinetics,"rat KCNQ2; 300 μM, −50 mV, N = 5 cells",2 fold
same,Increase in KCNQ2 current,rat KCNQ2; 750 μM,4 fold
same,Effect on after-discharge duration,"[3]; rat, i.p., p = 0.07",no statistically significant effect
same,Nav1.2 inhibition at −107 mV,rat Nav1.2; at −107 mV,virtually no inhibition
"CN(C)S(=O)(=O)NCC1COc2ccccc2O1 (centres unmarked) [compound 7, N-((2,3-Dihydrobenzo[1,4]dioxin-2-yl)methyl)-N’,N’-dimethylsulfamide]","MES, po, effect (animals responding / animals tested)","[1]; 300 mg/kg po, 0.5 h",4/5
same,"MES, po, effect (animals responding / animals tested)","[1]; 300 mg/kg po, 2 h",0/5
CCC1(C)CC(=O)NC1=O (centres unmarked) [ethosuximide],Effect in rat kindling model,[3]; maximally effective dose,not effective
NCC1(CC(=O)O)CCCCC1 [gabapentin],Effect on Na+ channel activity,rat Nav1.2; up to 300 μM,no effect
CC[C@@H](C(N)=O)N1CCCC1=O [levetiracetam],ED50 in chemically-induced seizures (comparators),[4],> 540 mg/kg
O=C1NC(=O)C(c2ccccc2)(c2ccccc2)N1 [phenytoin],Effect in rat kindling model,[3]; maximally effective dose,significantly suppressed seizure activity
CCCC(CCC)C(=O)O [valproic acid],ED50 in chemically-induced seizures (comparators),[4],> 200 mg/kg
same,Effect in rat kindling model,[3]; maximally effective dose,significantly suppressed seizure activity
same,Doses giving protection similar to 3 (range of neurotoxic effects),[3]; rat kindling,> 300 mg/kg
